Measured values: patent publication US20250388575A1, “HETEROBIFUNCTIONAL COMPOUNDS AND METHODS OF TREATING DISEASE” (Halda Therapeutics OpCo, Inc., priority 2022, published 2025)
Read-outs that look alike come from different tables or passages of the source.

Tests used:
T47D cells = experiment: Cellular growth inhibition assay for T47D cells, CellTiter-Glo; type: cell-based, human; details: 72 hours treatment, CellTiter-Glo 2.0
Procedure: T47D cells were purchased from American Type Cell Culture (ATCC Cat #HTB-133) and then seeded on poly-D-lysine coated, black clear-bottom 384-well plates at 3000/well in 25 μL Dulbecco's Modified Eagle Medium (DMEM) supplemented with 10% w/w Fetal bovine serum (FBS), 0.2 units/mL recombinant human insulin (Gibco Cat #12585014), and 1% w/w Pen-Strep. Pen-Strep is a commercially available mixture of penicillin G and streptomycin, which is used in mammalian cell culture media to prevent bacterial contamination. Dulbecco's Modified Eagle Medium (DMEM) supplemented with 10% w/w fetal bovine serum (FBS), 0.2 units/mL recombinant human insulin, and 1% w/w Pen-Strep is herein referred to as Treatment Medium. Following seeding of cells in the plates, the plates were spun at 300×g for 30 seconds, then equilibrated to room temperature for 30 minutes, and then deposited in a humidified tissue culture incubator maintained at 37° C. with 5% CO2.
At 24 hours after seeding of the cells, dilutions of test compound were prepared in DMSO and dissolved in Treatment Medium, to achieve a final DMSO concentration of 0.5% w/w, thereby providing the Test Compound Solution. A 25 μL aliquot of the Test Compound Solution was added to cells in the well plates. An equal volume of a solution containing DMSO and Treatment Medium was used as a negative control. Following treatment of cells with Test Compound Solution or said equal volume of a solution containing DMSO and Treatment Medium, the plates were spun at 300×g for 30 seconds, and then left in an incubator for 72 hours.
At the end of the treatment duration, cell viability was quantified with CellTiter-Glo 2.0 reagent (Promega Cat #G9243). For this purpose, plates were equilibrated to room temperature for 30 minutes, and then 25 μL of CellTiter-Glo 2.0 reagent was added to cells in the plate wells. Plates were then agitated on a shaker for two minutes at 500 rpm and subsequently incubated at room temperature for 10 minutes. Following incubation, the plates were spun at 3000×g for 30 seconds, then sealed with an optical adhesive cover, and luminescence readings were measured with an EnVision Plate Reader (Perkin Elmer).
Data was normalized using zero luminescence for baseline. A four-parameter non-linear regression curve fit was applied to dose-response data in GraphPad Prism data analysis software to determine the half-maximal growth inhibitory concentration (GI50) for each test compound.

[1] = test system: T-Rex 293 cell line SC3 cells lacking increased expression of androgen receptor protein; experiment: Cellular growth inhibition, T-Rex 293 SC3 cells lacking increased androgen receptor expression (no doxycycline), CellTiter-Glo; type: cell-based; details: T-Rex 293 SC3 cells lacking increased androgen receptor expression (not exposed to doxycycline), 72 hours, CellTiter-Glo; read-out: GI50
Outline: (§1)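 SC3, a T-Rex 293 clone with doxycycline-inducible wild-type androgen receptor, was seeded in phenol red-free DMEM with 10% charcoal-dextran FBS, with or without 10 ng/mL doxycycline. Compound added at 24 h (0.5% DMSO) for 72 h at 37° C. CellTiter-Glo 2.0 luminescence; GI50 from four-parameter fit.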

VCaP cells = experiment: Cellular growth inhibition assay for VCaP cells, CellTiter-Glo; type: cell-based, human; details: VCaP cells, 72 hours, CellTiter-Glo, read-out: GI50
Outline: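 GI50 values come from four-parameter curve fits of luminescence data normalized to a zero baseline. Compound, in medium with 0.5% DMSO, was added one day after plating and left for 72 h before CellTiter-Glo 2.0 addition.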

[2] = test system: T-Rex 293 cell line SC3 cells having increased expression of androgen receptor protein; experiment: Cellular growth inhibition, T-Rex 293 SC3 cells with increased androgen receptor expression (doxycycline), CellTiter-Glo; type: cell-based; details: T-Rex 293 SC3 cells with increased androgen receptor expression (exposed to 10 ng/mL doxycycline), 72 hours, CellTiter-Glo; read-out: GI50
Outline: as §1

For `CCC1CN(c2ccc(C(=O)N[C@H]3CC[C@H](Oc4ccc(C#N)c(Cl)c4)CC3)nn2)CC1c1ccc(Oc2ccc(S(=O)(=O)CC)cc2-c2cn(C)c(=O)c3[nH]ccc23)cc1` (stereo partly shown) [I-89], which GI50 (T47D cells) is on record?
The GI50 was under 0.5 µM.

And the GI50 [1]?
Its GI50 is over 3 µM.

What about the GI50 (VCaP cells) of the same compound?
Its GI50 is under 0.5 µM.

What about the GI50 [2] of the same compound?
Its GI50 is under 0.5 µM.

For `CCS(=O)(=O)c1ccc(Oc2ccc(N3CC(C4CCN(c5ccc(C(=O)N[C@H]6CC[C@H](Oc7ccc(C#N)c(Cl)c7)CC6)nn5)CC4)C3)cc2)c(-c2cn(C)c(=O)c3[nH]ccc23)c1` [I-91], which GI50 (T47D cells) is on record?
The GI50 was under 0.5 µM.

And the GI50 [1]?
Its GI50 is under 0.5 µM.

What about the GI50 (VCaP cells) of the same compound?
Its GI50 is under 0.5 µM.

And the GI50 [2]?
Its GI50 is under 0.5 µM.

For `CN(CCCc1ccc(Oc2ccc(C(C)(C)O)cc2-c2cn(C)c(=O)c3[nH]ccc23)cc1)c1ccc(C(=O)N[C@H]2CC[C@H](Oc3ccc(C#N)c(Cl)c3)CC2)nn1` [I-105], which GI50 (T47D cells) is on record?
Its GI50 is 1.5 to 3 µM.

And the GI50 [1]?
The GI50 was under 0.5 µM.

What about the GI50 (VCaP cells) of the same compound?
Its GI50 is under 0.5 µM.

And the GI50 [2]?
The GI50 was under 0.5 µM.

`Cn1cc(-c2cc(C(C)(C)O)ccc2Oc2ccc(CCC3CCN(c4ccc(C(=O)N[C@H]5CC[C@H](Oc6ccc(C#N)c(Cl)c6)CC5)nn4)CC3)c(F)c2F)c2cc[nH]c2c1=O` [I-112] was tested. Which GI50 (T47D cells) did it give?
Its GI50 is 0.5 to 1.5 µM.

What about the GI50 [1] of the same compound?
The GI50 was over 3 µM.

And the GI50 (VCaP cells)?
Its GI50 is 0.5 to 1.5 µM.

What about the GI50 [2] of the same compound?
The GI50 was under 0.5 µM.

With `Cn1cc(-c2cc(C(C)(C)O)ccc2Oc2ccc(CCC3CCN(c4ccc(C(=O)N[C@H]5CC[C@H](Oc6ccc(C#N)c(Cl)c6)CC5)nn4)CC3)c(F)c2)c2cc[nH]c2c1=O` [I-113] as the compound, how does the GI50 (T47D cells) read?
The GI50 was 0.5 to 1.5 µM.

What about the GI50 [1] of the same compound?
The GI50 was over 3 µM.

And the GI50 (VCaP cells)?
The GI50 was under 0.5 µM.

And the GI50 [2]?
The GI50 was under 0.5 µM.

Which GI50 (T47D cells) does the source give for `Cn1cc(-c2cc(C(C)(C)O)ccc2Oc2cc(F)c(CCC3CCN(c4ccc(C(=O)N[C@H]5CC[C@H](Oc6ccc(C#N)c(Cl)c6)CC5)nn4)CC3)c(F)c2)c2cc[nH]c2c1=O` [I-114] here?
Its GI50 is 1.5 to 3 µM.

What about the GI50 [1] of the same compound?
The GI50 was over 3 µM.

What about the GI50 (VCaP cells) of the same compound?
The GI50 was under 0.5 µM.

What about the GI50 [2] of the same compound?
The GI50 was under 0.5 µM.

With `Cn1cc(-c2cc(C(C)(C)O)ccc2Oc2c(F)cc(CCC3CCN(c4ccc(C(=O)N[C@H]5CC[C@H](Oc6ccc(C#N)c(Cl)c6)CC5)nn4)CC3)cc2F)c2cc[nH]c2c1=O` [I-115] as the compound, how does the GI50 (T47D cells) read?
Its GI50 is under 0.5 µM.

What about the GI50 [1] of the same compound?
Its GI50 is over 3 µM.

What about the GI50 (VCaP cells) of the same compound?
Its GI50 is under 0.5 µM.

What about the GI50 [2] of the same compound?
Its GI50 is under 0.5 µM.

For `Cn1cc(-c2cc(C(C)(C)O)ccc2Oc2cc(F)c(CCC3CCN(c4ccc(C(=O)N[C@H]5CC[C@H](Oc6ccc(C#N)c(Cl)c6)CC5)nn4)CC3)cc2F)c2cc[nH]c2c1=O` [I-116], which GI50 (T47D cells) is on record?
The GI50 was under 0.5 µM.

And the GI50 [1]?
Its GI50 is 0.5 to 1.5 µM.

And the GI50 (VCaP cells)?
Its GI50 is under 0.5 µM.

And the GI50 [2]?
The GI50 was under 0.5 µM.

For `Cn1cc(-c2cc(C(C)(C)O)ccc2Oc2ccc(CN3CC4(C3)CN(c3ccc(C(=O)N[C@H]5CC[C@H](Oc6ccc(C#N)c(Cl)c6)CC5)nn3)C4)cc2)c2cc[nH]c2c1=O` [I-123], which GI50 (T47D cells; Homo sapiens) is on record?
The GI50 was under 0.5 µM.

What about the GI50 [1] of the same compound?
Its GI50 is 0.5 to 1.5 µM.

What about the GI50 (VCaP cells; Homo sapiens) of the same compound?
Its GI50 is under 0.5 µM.

And the GI50 [2]?
Its GI50 is under 0.5 µM.

What does the source list for `Cn1cc(-c2cc(C(C)(C)O)ccc2Oc2ccc(CCC3CC4(C3)CN(c3ccc(C(=O)N[C@H]5CC[C@H](Oc6ccc(C#N)c(Cl)c6)CC5)nn3)C4)cc2)c2cc[nH]c2c1=O` [I-126]?
GI50 (T47D cells): < 0.5 µM; GI50 [1]: < 0.5 µM; GI50 (VCaP cells): < 0.5 µM; GI50 [2]: < 0.5 µM

Which GI50 (T47D cells) does the source give for `Cn1cc(-c2cc(C(C)(C)O)ccc2Oc2ccc(CCCC3CN(c4ccc(C(=O)N[C@H]5CC[C@H](Oc6ccc(C#N)c(Cl)c6)CC5)nn4)C3)cc2)c2cc[nH]c2c1=O` [I-127] here?
The GI50 was under 0.5 µM.

And the GI50 [1]?
Its GI50 is 0.5 to 1.5 µM.

What about the GI50 (VCaP cells) of the same compound?
The GI50 was under 0.5 µM.

And the GI50 [2]?
The GI50 was under 0.5 µM.

For `Cn1cc(-c2cc(C(C)(C)O)ccc2Oc2ccc(CCCC3C4CN(c5ccc(C(=O)N[C@H]6CC[C@H](Oc7ccc(C#N)c(Cl)c7)CC6)nn5)CC34)cc2)c2cc[nH]c2c1=O` (stereo partly shown) [I-128], which GI50 (T47D cells) is on record?
Its GI50 is under 0.5 µM.

What about the GI50 [1] of the same compound?
The GI50 was under 0.5 µM.

What about the GI50 (VCaP cells) of the same compound?
The GI50 was under 0.5 µM.

And the GI50 [2]?
The GI50 was under 0.5 µM.

For `Cn1cc(-c2cc(C(C)(C)O)ccc2Oc2ccc(CCC3CN(c4ccc(C(=O)N[C@H]5CC[C@H](Oc6ccc(C#N)c(Cl)c6)CC5)nn4)C3)cc2)c2cc[nH]c2c1=O` [I-129], which GI50 (T47D cells) is on record?
Its GI50 is under 0.5 µM.

What about the GI50 [1] of the same compound?
The GI50 was under 0.5 µM.

What about the GI50 (VCaP cells) of the same compound?
The GI50 was under 0.5 µM.

And the GI50 [2]?
Its GI50 is under 0.5 µM.
